According to patent US20210355121A1, “FUSED TRICYCLIC KRAS INHIBITORS” (Incyte Corporation, priority 2020, published 2021):

Columns and labels:
[1] = target: KRAS G12D (Homo sapiens, UniProt P01116, G12D); test: KRAS G12D GDP-GTP exchange assay (bodipy-GDP for GppNHp, with SOS1); type: biochemical; conditions: 2.5 nM bodipy loaded KRAS G12D, 4 hours after GppNHp-SOS1; read-out: G12D_exchange (KRAS_G12D exchange assay IC50)
Method: (§1) The inhibitor potency of the exemplified compounds was determined in a fluorescence based guanine nucleotide exchange assay, which measures the exchange of bodipy-GDP (fluorescently labeled GDP) for GppNHp (Non-hydrolyzable GTP analog) to generate the active state of KRAS in the presence of SOS1 (guanine nucleotide exchange factor). Inhibitors were serially diluted in DMSO and a volume of 0.1 μL was transferred to the wells of a black low volume 384-well plate. 5 μL/well volume of bodipy-loaded KRAS G12C diluted to 5 nM in assay buffer (25 mM Hepes pH 7.5, 50 mM NaCl, 10 mM MgCl2 and 0.01% Brij-35) was added to the plate and pre-incubated with inhibitor for 2 hours at ambient temperature. Appropriate controls (enzyme with no inhibitor or with a G12C inhibitor (AMG-510)) were included on the plate. The exchange was initiated by the addition of a 5 μL/well volume containing 1 mM GppNHp and 300 nM SOS1 in assay buffer. The 10 μL/well reaction concentration of the bodipy-loaded KRAS G12C, GppNHp, and SOS1 were 2.5 nM, 500 uM, and 150 nM, respectively. The reaction plates were incubated at ambient temperature for 2 hours, a time estimated for complete GDP-GTP exchange in the absence of inhibitor. For the KRAS G12D and G12V mutants, similar guanine nucleotide exchange assays were used with 2.5 nM as final concentration for the bodipy loaded KRAS proteins and with 4 hours and 3 hours incubation after adding GppNHp-SOS1 mixture for G12D and G12V respectively. A cyclic peptide described to selectively bind G12D mutant (Sakamoto et al., BBRC 484.3 (2017), 605-611) or internal compounds with confirmed binding were used as positive controls in the assay plates. Fluorescence intensities were measured on a PheraStar plate reader instrument (BMG Labtech) with excitation at 485 nm and emission at 520 nm.
(§2) Either GraphPad prism or XLfit was used to analyze the data. The IC50 values were derived by fitting the data to a four parameter logistic equation producing a sigmoidal dose-response curve with a variable Hill coefficient. Prism equation: Y=Bottom+(Top−Bottom)/(1+10^((Log IC50−X)*Hill slope)); XLfit equation: Y=(A+((B−A)/(1+((X/C)^D)))) where X is the logarithm of inhibitor concentration and Y is the response.

[2] = target: KRAS G12V (Homo sapiens, UniProt P01116, G12V); test: KRAS G12V GDP-GTP exchange assay (bodipy-GDP for GppNHp, with SOS1); type: biochemical; conditions: 2.5 nM bodipy loaded KRAS G12V, 3 hours after GppNHp-SOS1; read-out: G12V_exchange (KRAS_G12V exchange assay IC50)
Method: as §1, §2

KRAS G12V, sequence (P01116 1-188 isoform P01116-2 G12V): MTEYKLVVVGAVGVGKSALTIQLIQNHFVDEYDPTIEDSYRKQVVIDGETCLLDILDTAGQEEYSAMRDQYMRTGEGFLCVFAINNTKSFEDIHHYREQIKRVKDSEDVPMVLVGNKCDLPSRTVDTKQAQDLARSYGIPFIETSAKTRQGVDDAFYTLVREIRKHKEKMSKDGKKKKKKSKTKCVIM
KRAS G12D, sequence (P01116 1-188 isoform P01116-2 G12D): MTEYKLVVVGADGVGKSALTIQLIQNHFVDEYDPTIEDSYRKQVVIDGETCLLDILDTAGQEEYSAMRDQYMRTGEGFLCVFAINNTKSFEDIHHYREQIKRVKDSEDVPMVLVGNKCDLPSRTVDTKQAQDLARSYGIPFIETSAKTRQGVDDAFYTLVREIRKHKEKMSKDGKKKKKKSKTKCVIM

IC50 [1] | IC50 [2] | Structure (SMILES)
≤ 100 nM | 100 to 1000 nM | CN1CCC[C@H]1COc1nc2c(F)c(-c3cc(O)cc4ccccc34)c(CCC#N)cc2c2c1c(-c1cccnc1)cn2C1C2CNC1C2 (stereo partly drawn) [Example 35, 3-(1-(2-azabicyclo[2.1.1]hexan-5-yl)-6-fluoro-7-(3-hydroxynaphthalen-1-yl)-4-(((S)-1-methylpyrrolidin-2-yl)methoxy)-3-(pyridin-3-yl)-1H-pyrrolo[3,2-c]quinolin-8-yl)propanenitrile]
≤ 100 nM | 100 to 1000 nM | Cc1ncc(-c2cn(C3C4CNC3C4)c3c2c(OC[C@@H]2CCCN2C)nc2c(F)c(-c4cc(O)cc5ccccc45)c(CCC#N)cc23)s1 (stereo partly drawn) [Example 37, 3-(1-(2-azabicyclo[2.1.1]hexan-5-yl)-6-fluoro-7-(3-hydroxynaphthalen-1-yl)-4-(((S)-1-methylpyrrolidin-2-yl)methoxy)-3-(2-methylthiazol-5-yl)-1H-pyrrolo[3,2-c]quinolin-8-yl)propanenitrile]
≤ 100 nM | ≤ 100 nM | CN1CCC[C@H]1COc1nc2c(F)c(-c3cccc4ccc(F)cc34)c(CCC#N)cc2c2c1cc(CCC(=O)N1CCC1)n2C1C2CNC1C2 (stereo partly drawn) [Example 50, 3-(2-(3-(azetidin-1-yl)-3-oxopropyl)-1-(2-azabicyclo[2.1.1]hexan-5-yl)-6-fluoro-7-(7-fluoronaphthalen-1-yl)-4-(((S)-1-methylpyrrolidin-2-yl)methoxy)-1H-pyrrolo[3,2-c]quinolin-8-yl)propanenitrile]
≤ 100 nM | ≤ 100 nM | CN1CCC[C@H]1COc1nc2c(F)c(-c3cc(O)cc4ccccc34)c(CCC#N)cc2c2c1c(-c1cn[nH]c1)cn2C1C2CNC1C2 (stereo partly drawn) [Example 41, 3-(1-(2-azabicyclo[2.1.1]hexan-5-yl)-6-fluoro-7-(3-hydroxynaphthalen-1-yl)-4-(((S)-1-methylpyrrolidin-2-yl)methoxy)-3-(1H-pyrazol-4-yl)-1H-pyrrolo[3,2-c]quinolin-8-yl)propanenitrile]
100 to 1000 nM | 100 to 1000 nM | COC(=O)CCc1c(N2CC(N(C)C)C2)c2c(OC)nc3c(F)c(-c4cc(O)cc5ccccc45)c(CCC#N)cc3c2n1[C@H]1[C@H]2CN[C@@H]1C2 [Example 49, methyl 3-(1-((1R,4R,5S)-2-azabicyclo[2.1.1]hexan-5-yl)-8-(2-cyanoethyl)-3-(3-(dimethylamino)azetidin-1-yl)-6-fluoro-7-(3-hydroxynaphthalen-1-yl)-4-methoxy-1H-pyrrolo[3,2-c]quinolin-2-yl)propanoate]
100 to 1000 nM | 1000 to 5000 nM | CN1CCC[C@H]1COc1nc2c(F)c(-c3cc(O)cc4ccccc34)c(CCC#N)cc2c2c1c(-c1ccccc1)cn2C1C2CNC1C2 (stereo partly drawn) [Example 34, 3-(1-(2-azabicyclo[2.1.1]hexan-5-yl)-6-fluoro-7-(3-hydroxynaphthalen-1-yl)-4-(((S)-1-methylpyrrolidin-2-yl)methoxy)-3-phenyl-1H-pyrrolo[3,2-c]quinolin-8-yl)propanenitrile]
≤ 100 nM | 100 to 1000 nM | CN1CCC[C@H]1COc1nc2c(F)c(-c3cc(O)cc4ccccc34)c(CCC#N)cc2c2c1c(Cl)cn2C1C2CNC1C2 (stereo partly drawn) [Example 43, 3-(1-(2-azabicyclo[2.1.1]hexan-5-yl)-3-chloro-6-fluoro-7-(3-hydroxynaphthalen-1-yl)-4-(((S)-1-methylpyrrolidin-2-yl)methoxy)-1H-pyrrolo[3,2-c]quinolin-8-yl)propanenitrile]
≤ 100 nM | ≤ 100 nM | CN1CCC[C@H]1COc1nc2c(F)c(-c3cc(O)cc4ccccc34)c(CCC#N)cc2c2c1cc(-c1ccn(C)n1)n2C1C2CNC1C2 (stereo partly drawn) [Example 39, 3-(1-(2-azabicyclo[2.1.1]hexan-5-yl)-6-fluoro-7-(3-hydroxynaphthalen-1-yl)-2-(1-methyl-1H-pyrazol-3-yl)-4-(((S)-1-methylpyrrolidin-2-yl)methoxy)-1H-pyrrolo[3,2-c]quinolin-8-yl)propanenitrile]
≤ 100 nM | ≤ 100 nM | CN1CCC[C@H]1COc1nc2c(F)c(-c3cc(O)cc4ccccc34)c(CCC#N)cc2c2c1cc(-c1cnn(C)c1)n2C1C2CNC1C2 (stereo partly drawn) [Example 32, 3-(1-(2-azabicyclo[2.1.1]hexan-5-y1)-6-fluoro-7-(3-hydroxynaphthalen-1-y1)-2-(1-methyl-1H-pyrazol-4-y1)-4-(((S)-1-methylpyrrolidin-2-yl)methoxy)-1H-pyrrolo[3,2-c]quinolin-8-yl)propanenitrile]
≤ 100 nM | 100 to 1000 nM | CN1CCC[C@H]1COc1nc2c(F)c(-c3cc(O)cc4ccccc34)c(CCC#N)cc2c2c1c(-c1ccc(=O)[nH]c1)cn2C1C2CNC1C2 (stereo partly drawn) [Example 42, 3-(1-(2-azabicyclo[2.1.1]hexan-5-yl)-6-fluoro-7-(3-hydroxynaphthalen-1-yl)-4-(((S)-1-methylpyrrolidin-2-yl)methoxy)-3-(6-oxo-1,6-dihydropyridin-3-yl)-1H-pyrrolo[3,2-c]quinolin-8-yl)propanenitrile]
≤ 100 nM | 100 to 1000 nM | CN1CCC[C@H]1COc1nc2c(F)c(-c3cc(O)cc4ccccc34)c(CCC#N)cc2c2c1ccn2C1C2CNC1C2 (stereo partly drawn) [Example 33, 3-(1-(2-azabicyclo[2.1.1]hexan-5-yl)-6-fluoro-7-(3-hydroxynaphthalen-1-yl)-4-(((S)-1-methylpyrrolidin-2-yl)methoxy)-1H-pyrrolo[3,2-c]quinolin-8-yl)propanenitrile]
≤ 100 nM | 100 to 1000 nM | CN1CCC[C@H]1COc1nc2c(F)c(-c3cc(O)cc4ccccc34)c(CCC#N)cc2c2c1c(C(=O)NCc1ccccc1)cn2C1C2CNC1C2 (stereo partly drawn) [Example 45, N-Benzyl-1-(2-azabicyclo[2.1.1]hexan-5-yl)-8-(2-cyanoethyl)-6-fluoro-7-(3-hydroxynaphthalen-1-yl)-4-(((S)-1-methylpyrrolidin-2-yl)methoxy)-1H-pyrrolo[3,2-c]quinoline-3-carboxamide]
≤ 100 nM | ≤ 100 nM | COC(=O)CCc1cc2c(OC[C@@H]3CCCN3C)nc3c(F)c(-c4cc(O)cc5ccccc45)c(CCC#N)cc3c2n1C1C2CNC1C2 (single isomer, unassigned) [Example 29]
≤ 100 nM | ≤ 100 nM | CCOc1nc2c(F)c(-c3cc(O)cc4ccccc34)c(CCC#N)cc2c2c1cc(CCC(=O)N(C)C)n2[C@H]1[C@H]2CN[C@@H]1C2 [Example 48, 3-(1-((1R,4R,5S)-2-azabicyclo[2.1.1]hexan-5-yl)-8-(2-cyanoethyl)-4-ethoxy-6-fluoro-7-(3-hydroxynaphthalen-1-yl)-1H-pyrrolo[3,2-c]quinolin-2-yl)-N,N-dimethylpropanamide]
≤ 100 nM | 100 to 1000 nM | Cc1ncc(-c2cn(C3C4CNC3C4)c3c2c(OC[C@@H]2CCCN2C)nc2c(F)c(-c4cc(O)cc5ccccc45)c(CCC#N)cc23)o1 (stereo partly drawn) [Example 36, 3-(1-(2-azabicyclo[2.1.1]hexan-5-yl)-6-fluoro-7-(3-hydroxynaphthalen-1-yl)-3-(2-methyloxazol-5-yl)-4-(((S)-1-methylpyrrolidin-2-yl)methoxy)-1H-pyrrolo[3,2-c]quinolin-8-yl)propanenitrile]
100 to 1000 nM | 1000 to 5000 nM | CN1CCC[C@H]1COc1nc2c(F)c(-c3cc(O)cc4ccccc34)c(CCC#N)cc2c2c1cc(Cc1ccccc1)n2C1C2CNC1C2 (stereo partly drawn) [Example 40, 3-(2-benzyl-1-(2-azabicyclo[2.1.1]hexan-5-yl)-6-fluoro-7-(3-hydroxynaphthalen-1-yl)-4-(((S)-1-methylpyrrolidin-2-yl)methoxy)-1H-pyrrolo[3,2-c]quinolin-8-yl)propanenitrile]
≤ 100 nM | ≤ 100 nM | CCCc1cc2c(OC[C@@H]3CCCN3C)nc3c(F)c(-c4cc(O)cc5ccccc45)c(CCC#N)cc3c2n1C1C2CNC1C2 (stereo partly drawn) [Example 31, 3-(1-(2-azabicyclo[2.1.1]hexan-5-yl)-6-fluoro-7-(3-hydroxynaphthalen-1-yl)-4-(((S)-1-methylpyrrolidin-2-yl)methoxy)-2-propyl-1H-pyrrolo[3,2-c]quinolin-8-yl)propanenitrile]
≤ 100 nM | ≤ 100 nM | CN(C)C(=O)CCc1cc2c(OC[C@@H]3CCCN3C)nc3c(F)c(-c4cc(O)cc5ccccc45)c(CCC#N)cc3c2n1C1C2CNC1C2 (stereo partly drawn) [Example 30, 3-(1-(2-azabicyclo[2.1.1]hexan-5-yl)-8-(2-cyanoethyl)-6-fluoro-7-(3-hydroxynaphthalen-1-yl)-4-(((S)-1-methylpyrrolidin-2-yl)methoxy)-1H-pyrrolo[3,2-c]quinolin-2-yl)-N,N-dimethylpropanamide]
